# Measured values from PubChem BioAssay (NCI).
#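 Cells were grown in 96-well plates and exposed to each compound for 48 hours at five concentrations; endpoints were interpolated linearly between bracketing concentrations, or set to the highest concentration if not reached. GI50 is the concentration that inhibits growth by half. The concentration for full growth arrest is given as TGI.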
# How the values were obtained:
# Assay in all cases: NCI-60 cell line screen, 48 h
# [1] = tested on: SK-MEL-2 melanoma
# [2] = tested on: HOP-92 NSCLC
# [3] = tested on: M14 melanoma
# [4] = tested on: TK-10 renal
# [5] = tested on: HCC-2998 colon
# [6] = tested on: LOX IMVI melanoma
# [7] = tested on: 786-0 renal
# [8] = tested on: A549 NSCLC
# [9] = tested on: U251 CNS
# [10] = tested on: MCF7 breast
SMILES,TGI [1] [µM],TGI [2] [µM],TGI [3] [µM],TGI [4] [µM],TGI [5] [µM],TGI [6] [µM],TGI [7] [µM],TGI [8] [µM],TGI [9] [µM],GI50 [1] [µM],GI50 [2] [µM],GI50 [3] [µM],GI50 [4] [µM],GI50 [5] [µM],GI50 [6] [µM],GI50 [7] [µM],GI50 [8] [µM],GI50 [9] [µM],GI50 [10] [µM],TGI [10] [µM]
CCOc1ccccc1N1C(=O)C(=O)C(c2nc3ccccc3o2)/C(=N\N)C1=O (centres undefined),> 100,> 100,> 100,> 100,> 100,> 100,> 100,> 100,> 100,–,–,–,–,–,–,–,–,–,–,–
CC1=C(C(=O)Nc2ccc([N+](=O)[O-])cc2)C(c2ccccc2O)C(C(=O)Nc2ccc([N+](=O)[O-])cc2)=C(C)N1,31.8,40.1,45.1,> 100,27.2,34.5,64.8,90.4,61.1,–,–,–,–,–,–,–,–,–,–,–
O=C(O)c1ccc([S-])cc1.[Au+].c1ccc(CN2[CH-]N(Cc3ccccc3)C(c3ccccc3)=C2c2ccccc2)cc1,1.21,0.806,1.61,1.98,1.88,1.37,1.59,1.63,1.36,0.346,0.204,0.385,0.613,0.536,0.311,0.376,0.358,0.321,–,–
O=C1C(Cl)=C(Nc2cccc(O)c2)C(=O)N1Cc1ccc(Cl)cc1,9.36,–,23.2,19.8,–,6.34,28.1,37.4,26.9,1.83,–,4.43,5.86,–,1.47,1.63,5.22,1.86,2.75,14.6
Nc1nc(NC2C=C(CO)C(O)C2O)c([N+](=O)[O-])c(=O)[nH]1 (centres undefined),> 100,> 100,> 100,> 100,> 100,> 100,> 100,> 100,> 100,–,–,–,–,–,–,–,–,–,–,–
COc1ccc(OC)c(NCC#N)c1,> 100,> 100,> 100,> 100,> 100,> 100,> 100,> 100,> 100,–,–,–,–,–,–,–,–,–,–,–
COC1=C2C[C@H](O)C(C)C[C@@]2(OC)OC1=O (some centres undefined),> 100,> 100,> 100,–,> 100,> 100,> 100,> 100,> 100,–,–,–,–,–,–,–,–,–,–,–
NC(CC(=O)Nc1ccc(Cl)cc1)=Nc1ccccc1,> 100,–,> 100,> 100,> 100,> 100,> 100,> 100,> 100,–,–,–,–,–,–,–,–,–,–,–
CCO/C=C1\N=C(C(Cl)c2ccccc2)OC1=O (centres undefined),> 100,> 100,> 100,> 100,> 100,> 100,> 100,> 100,–,–,–,–,–,–,–,–,–,–,–,–
COc1cc([C@H]2c3cc4c(cc3[C@H](NCc3ccc([N+](=O)[O-])cc3)C3COC(=O)[C@H]32)OCO4)cc(OC)c1O (some centres undefined),34.9,> 100,10.4,7.08,3.98,9.81,2.78,2.23,3.26,–,–,–,–,–,–,–,–,–,–,–
CCOC(=O)[C@H]1CSC[C@@H](C(=O)OC)N1,> 100,–,> 100,> 100,> 100,> 100,> 100,> 100,> 100,–,–,–,–,–,–,–,–,–,–,–
CC1(C)N=C(N)N=C(N)N1c1ccc(CCc2ccc(Cl)cc2S(=O)(=O)F)c(Cl)c1,–,58.3,> 100,–,45.9,20.6,> 100,> 100,20.6,–,16.6,6.2,–,11.8,4.04,5.21,1.49,4.42,3.64,18.9
CC(C)(c1ccc(Oc2ccc(C#N)c(C#N)c2)cc1)c1ccc(Oc2ccc(C#N)c(C#N)c2)cc1,> 100,> 100,> 100,> 100,> 100,> 100,> 100,> 100,> 100,> 100,> 100,> 100,> 100,> 100,> 100,> 100,> 100,> 100,–,–
NC(=O)C(=Cc1ccc(CP(=O)(O)O)cc1)C(N)=O,> 100,> 100,> 100,> 100,> 100,> 100,> 100,> 100,> 100,–,–,–,–,–,–,–,–,–,–,–
O=c1nc(NC(c2ccccc2)(c2ccccc2)c2ccccc2)ccn1CCO,> 100,> 100,–,> 100,> 100,> 100,> 100,> 100,> 100,–,–,–,–,–,–,–,–,–,–,–
COc1cc(C=O)c(-c2cc3c(cc2C2(C)OCCS2)OCO3)c(OC)c1OC (centres undefined),47.7,90.3,16.1,> 205,31.2,37.7,23.6,> 97,72,–,–,–,–,–,–,–,–,–,–,–
CC1(C)CCC[C@]2(C)c3cc(O)ccc3CC[C@@H]12,43,–,> 100,33.7,–,33.7,79.7,36.5,29.1,20.1,–,28.2,18.2,–,16.9,27.3,19,14.6,13.3,37.1
CC(=O)C1COC(O)C1C (centres undefined),29.1,78.7,61.1,> 100,–,39.4,49.8,> 100,58.2,–,–,–,–,–,–,–,–,–,–,67.3
COC(=O)c1ccc(NC(=O)c2cc(OC)c(OC)c(OC)c2)cc1,> 100,> 100,> 100,> 100,6.67,> 100,> 100,> 100,–,–,–,–,–,–,–,–,–,–,–,–
